{
  "source": "patent US8227490B2",
  "about": "“Use of 1-hydroxy-2-pyridones for the treatment of seborrheic dermatitis” (Medicis Pharmaceutical Corporation, priority 1996, dated 2012)",
  "origin": "cited, not measured here",
  "test_system": "gram-positive bacteria",
  "details": "Kinsman et al., J. Med. Microbiol. (1983)",
  "data": [
    {"molecule": "CC(=O)N1CCN(c2ccc(OCC3COC(Cn4ccnc4)(c4ccc(Cl)cc4Cl)O3)cc2)CC1", "note": "(stereo not shown) [ketoconazole]", "values": [
      {"measurement": "activity in vitro against gram-positive bacteria", "result": "inactive"}
    ]}
  ]
}
